Measured values: patent US12448399B2, “Cereblon-based KRAS degrading PROTACs and uses related thereto” (Arvinas Operations, Inc., priority 2023, dated 2025)
Values belong to the molecule of their own block, whether it stands above or below them.

Target: T1, KRas-G12D (Homo sapiens, UniProt P01116, G12D)
T1 construct: insert the HiBiT tag onto the N-terminus of one or more of the endogenous KRas alleles; host or cells: AsPC-1 HiBiT-KRasG12D knock-in clone (one tagged allele, two untagged KRasG12D alleles)
Test: HiBiT Degradation Assay (G12D), AsPC-1 HiBiT-KRasG12D cells, 24 hr
Type: cell-based
Conditions: for Dmax: ASPC1, AsPC-1 cells, maximum degradation observed; for DC50: AsPC-1 cells
Method in brief: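 AsPC-1 cells with CRISPR N-terminal HiBiT knock-in on one endogenous KRasG12D allele, treated 24 hr at 37° C with compound titrations in 0.5% DMSO. Lytic HiBiT luminescence normalized to DMSO, fitted to a 4-parameter model for DC50 and Dmax. Parallel alamar blue (4 hr) checked viability.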

T1 sequence (P01116 1-188 isoform P01116-2 G12D): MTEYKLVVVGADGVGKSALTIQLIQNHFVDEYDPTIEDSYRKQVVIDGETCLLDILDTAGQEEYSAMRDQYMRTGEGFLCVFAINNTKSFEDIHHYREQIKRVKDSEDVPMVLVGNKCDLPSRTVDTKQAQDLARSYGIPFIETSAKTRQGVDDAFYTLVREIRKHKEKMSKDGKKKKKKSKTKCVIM

Structure (SMILES): C#Cc1c(F)ccc2cc(O)cc(-c3ncc4c(N5CC6CCC(C5)N6)nc(OCCN5CCC(CC6CCN(c7ccc8c(c7)n(C)c(=O)n8C7CCC(=O)NC7=O)CC6)CC5)nc4c3F)c12 (stereo not drawn) [Compound 89, 3-(5-{4-[(1-{2-[(4-{3,8-diazabicyclo[3.2.1]octan-3-yl}-7-(8-ethynyl-7-fluoro-3-hydroxynaphthalen-1-yl)-8-fluoropyrido[4,3-d]pyrimidin-2-yl)oxy]ethyl}piperidin-4-yl)methyl]piperidin-1-yl}-3-methyl-2-oxo-2,3-dihydro-1H-1,3-benzodiazol-1-yl)piperidine-2,6-dione]
Dmax: > 70%
DC50: < 5.1 µM

DC50: > 1 µM
Structure (SMILES): C#Cc1c(F)ccc2cc(O)cc(-c3ncc4c(N5CC6CCC(C5)N6)nc(OCCN5CCC(CC6(F)CCN(CC7CCN(c8ccc9c(c8)CN(C8CCC(=O)NC8=O)C9=O)CC7)CC6)CC5)nc4c3F)c12 (stereo not drawn) [Compound 90, 3-{5-[4-({4-[(1-{2-[(4-{3,8-diazabicyclo[3.2.1]octan-3-yl}-7-(8-ethynyl-7-fluoro-3-hydroxynaphthalen-1-yl)-8-fluoropyrido[4,3-d]pyrimidin-2-yl)oxy]ethyl}piperidin-4-yl)methyl]-4-fluoropiperidin-1-yl}methyl)piperidin-1-yl]-1-oxo-2,3-dihydro-1H-isoindol-2-yl}piperidine-2,6-dione]

Structure (SMILES): C#Cc1c(F)ccc2cc(O)cc(-c3ncc4c(N5CC6CCC(C5)N6)nc(OCCN5CCC(F)(CC6CCN(CC7CCN(c8ccc9c(c8)CN(C8CCC(=O)NC8=O)C9=O)CC7)CC6)CC5)nc4c3F)c12 (stereo not drawn) [Compound 91, 3-[5-[4-[[4-[[1-[2-[4-(3,8-diazabicyclo [3.2.1]octan-3-yl)-7-(8-ethynyl-7-fluoro-3-hydroxy-1-naphthyl)-8-fluoro-pyrido[4,3-d]pyrimidin-2-yl]oxyethyl]-4-fluoro-4-piperidyl]methyl]-1-piperidyl]methyl]-1-piperidyl]-1-oxo-isoindolin-2-yl]piperidine-2,6-dione]
Dmax: > 70%
DC50: < 5.1 µM

Structure (SMILES): C#Cc1c(F)ccc2cc(O)cc(-c3ncc4c(N5CC6CCC(C5)N6)nc(OCCN5CCC(CN6CCC7(CC6)CCN(c6ccc8c(c6F)CN(C6CCC(=O)NC6=O)C8=O)CC7)CC5)nc4c3F)c12 (stereo not drawn) [Compound 92, 3-(5-{9-[(1-{2-[(4-{3,8-diazabicyclo[3.2.1]octan-3-yl}-7-(8-ethynyl-7-fluoro-3-hydroxynaphthalen-1-yl)-8-fluoropyrido[4,3-d]pyrimidin-2-yl)oxy]ethyl}piperidin-4-yl)methyl]-3,9-diazaspiro[5.5]undecan-3-yl}-4-fluoro-1-oxo-2,3-dihydro-1H-isoindol-2-yl)piperidine-2,6-dione]
Dmax: > 70%
DC50: < 5.1 µM

Structure (SMILES): C#Cc1c(F)ccc2cc(O)cc(-c3ncc4c(N5CC6CCC(C5)N6)nc(OCCN5CCC(CN6CCC7(CC6)CCN(c6ccc8c(c6)CN(C6CCC(=O)NC6=O)C8=O)CC7)CC5)nc4c3F)c12 (stereo not drawn) [Compound 93, 3-(5-{9-[(1-{2-[(4-{3,8-diazabicyclo[3.2.1]octan-3-yl}-7-(8-ethynyl-7-fluoro-3-hydroxynaphthalen-1-yl)-8-fluoropyrido[4,3-d]pyrimidin-2-yl)oxy]ethyl}piperidin-4-yl)methyl]-3,9-diazaspiro[5.5]undecan-3-yl}-1-oxo-2,3-dihydro-1H-isoindol-2-yl)piperidine-2,6-dione]
Dmax: > 70%
DC50: < 5.1 µM

Structure (SMILES): C#Cc1c(F)ccc2cc(O)cc(-c3ncc4c(N5CC6CCC(C5)N6)nc(OCCN5CCC(CC6CCN(CC7CCN(c8cccc9c8n(C(C)C)c(=O)n9C8CCC(=O)NC8=O)CC7)CC6)CC5)nc4c3F)c12 (stereo not drawn) [Compound 94, 3-{4-[4-({4-[(1-{2-[(4-{3,8-diazabicyclo[3.2.1]octan-3-yl}-7-(8-ethynyl-7-fluoro-3-hydroxynaphthalen-1-yl)-8-fluoropyrido[4,3-d]pyrimidin-2-yl)oxy]ethyl}piperidin-4-yl)methyl]piperidin-1-yl}methyl)piperidin-1-yl]-2-oxo-3-(propan-2-yl)-2,3-dihydro-1H-1,3-benzodiazol-1-yl}piperidine-2,6-dione]
Dmax: > 70%
DC50: < 5.1 µM

Structure (SMILES): C#Cc1c(F)ccc2cc(O)cc(-c3ncc4c(N5CC6CCC(C5)N6)nc(OC[C@@H]5C[C@@H](OC6CCN(CC7CCN(c8ccc9c(c8)n(C(C)C)c(=O)n9C8CCC(=O)NC8=O)CC7)CC6)CN5C)nc4c3F)c12 (stereo partly drawn) [Compound 95, 3-(5-{4-[(4-{[(3R,5S)-5-{[(4-{3,8-diazabicyclo[3.2.1]octan-3-yl}-7-(8-ethynyl-7-fluoro-3-hydroxynaphthalen-1-yl)-8-fluoropyrido[4,3-d]pyrimidin-2-yl)oxy]methyl}-1-methylpyrrolidin-3-yl]oxy}piperidin-1-yl)methyl]piperidin-1-yl}-2-oxo-3-(propan-2-yl)-2,3-dihydro-1H-1,3-benzodiazol-1-yl)piperidine-2,6-dione]
Dmax: > 70%
DC50: < 5.1 µM

Structure (SMILES): C#Cc1c(F)ccc2cc(O)cc(-c3ncc4c(N5CC6CCC(C5)N6)nc(OC[C@@H]5C[C@@H](OC6CCN(CC7CCN(c8ccc9c(c8)n(C)c(=O)n9C8CCC(=O)NC8=O)CC7)CC6)CN5C)nc4c3F)c12 (stereo partly drawn) [Compound 96, 3-(5-{4-[(4-{[(3R,5S)-5-{[(4-{3,8-diazabicyclo[3.2.1]octan-3-yl}-7-(8-ethynyl-7-fluoro-3-hydroxynaphthalen-1-yl)-8-fluoropyrido[4,3-d]pyrimidin-2-yl)oxy]methyl}-1-methylpyrrolidin-3-yl]oxy}piperidin-1-yl)methyl]piperidin-1-yl}-3-methyl-2-oxo-2,3-dihydro-1H-1,3-benzodiazol-1-yl)piperidine-2,6-dione]
Dmax: > 70%
DC50: < 5.1 µM

DC50: > 1 µM
Structure (SMILES): C#Cc1c(F)ccc2cc(O)cc(-c3ncc4c(N5CC6CCC(C5)N6)nc(OCCN5CCC(CC6CCN(CC7CCN(c8ccc9c(c8)CN(C8(C)CCC(=O)NC8=O)C9=O)CC7)CC6)CC5)nc4c3F)c12 (stereo not drawn) [Compound 97]

Structure (SMILES): C#Cc1c(F)ccc2cc(O)cc(-c3ncc4c(N5CC6CCC(C5)N6)nc(OCCN5CCC(CC6CCN(CC7CCN(c8ccc9c(c8)n(C(C)C)c(=O)n9C8CCC(=O)NC8=O)CC7)CC6)CC5)nc4c3F)c12 (stereo not drawn) [Compound 98, 3-{5-[4-({4-[(1-{2-[(4-{3,8-diazabicyclo[3.2.1]octan-3-yl}-7-(8-ethynyl-7-fluoro-3-hydroxynaphthalen-1-yl)-8-fluoropyrido[4,3-d]pyrimidin-2-yl)oxy]ethyl}piperidin-4-yl)methyl]piperidin-1-yl}methyl)piperidin-1-yl]-2-oxo-3-(propan-2-yl)-2,3-dihydro-1H-1,3-benzodiazol-1-yl}piperidine-2,6-dione]
Dmax: > 70%
DC50: < 5.1 µM

Structure (SMILES): C#Cc1c(F)ccc2cc(O)cc(-c3ncc4c(N5CC6CCC(C5)N6)nc(OCC5(CN6CCC(CC7CCN(c8ccc9c(c8)CN(C8CCC(=O)NC8=O)C9=O)CC7)CC6)CC5)nc4c3F)c12 (stereo not drawn) [Compound 99, 3-{5-[4-({1-[(1-{[(4-{3,8-diazabicyclo[3.2.1]octan-3-yl}-7-(8-ethynyl-7-fluoro-3-hydroxynaphthalen-1-yl)-8-fluoropyrido[4,3-d]pyrimidin-2-yl)oxy]methyl}cyclopropyl)methyl]piperidin-4-yl}methyl)piperidin-1-yl]-1-oxo-2,3-dihydro-1H-isoindol-2-yl}piperidine-2,6-dione]
Dmax: > 70%
DC50: < 5.1 µM

Structure (SMILES): C#Cc1c(F)ccc2cc(O)cc(-c3ncc4c(N5CC6CCC(C5)N6)nc(OC[C@@]56CCCN5[C@H](CN5CCN(CC7CCN(c8ccc9c(c8)CN(C8CCC(=O)NC8=O)C9=O)CC7)CC5)CC6)nc4c3F)c12 (stereo partly drawn) [Compound 100, 3-(5-{4-[(4-{[(3S,7aS)-7a-{[(4-{3,8-diazabicyclo[3.2.1]octan-3-yl}-7-(8-ethynyl-7-fluoro-3-hydroxynaphthalen-1-yl)-8-fluoropyrido[4,3-d]pyrimidin-2-yl)oxy]methyl}-hexahydro-1H-pyrrolizin-3-yl]methyl}piperazin-1-yl)methyl]piperidin-1-yl}-1-oxo-2,3-dihydro-1H-isoindol-2-yl)piperidine-2,6-dione]
Dmax: > 70%
DC50: < 5.1 µM

Structure (SMILES): C#Cc1c(F)ccc2cc(O)cc(-c3ncc4c(N5CC6CCC(C5)N6)nc(OCCN5CCC(CN6CCN(CC7CCN(c8ccc9c(c8F)CN(C8CCC(=O)NC8=O)C9=O)CC7)CC6)CC5)nc4c3F)c12 (stereo not drawn) [Compound 101, 3-[5-[4-[[4-[[1-[2-[4-(3,8-diazabicyclo[3.2.1]octan-3-yl)-7-(8-ethynyl-7-fluoro-3-hydroxy-1-naphthyl)-8-fluoro-pyrido[4,3-d]pyrimidin-2-yl]oxyethyl]-4-piperidyl]methyl]piperazin-1-yl]methyl]-1-piperidyl]-4-fluoro-1-oxo-isoindolin-2-yl]piperidine-2,6-dione]
Dmax: > 70%
DC50: < 5.1 µM

Structure (SMILES): C#Cc1c(F)ccc2cc(O)cc(-c3ncc4c(N5CC6CCC(C5)N6)nc(OC[C@@H]5C[C@@H](OC6CCN(c7ccc8c(c7F)CN(C7CCC(=O)NC7=O)C8=O)CC6)CN5C)nc4c3F)c12 (stereo partly drawn) [Compound 103, 3-[5-(4-{[(3R,5S)-5-{[(4-{3,8-diazabicyclo[3.2.1]octan-3-yl}-7-(8-ethynyl-7-fluoro-3-hydroxynaphthalen-1-yl)-8-fluoropyrido[4,3-d]pyrimidin-2-yl)oxy]methyl}-1-methylpyrrolidin-3-yl]oxy}piperidin-1-yl)-4-fluoro-1-oxo-2,3-dihydro-1H-isoindol-2-yl]piperidine-2,6-dione]
Dmax: > 70%
DC50: < 5.1 µM

Structure (SMILES): C#Cc1c(F)ccc2cc(O)cc(-c3ncc4c(N5CC6CCC(C5)N6)nc(OC[C@@H]5C[C@@H](OC6CCN(c7ccc8c(c7)CN(C7CCC(=O)NC7=O)C8=O)CC6)CN5C)nc4c3F)c12 (stereo partly drawn) [Compound 104]
Dmax: > 70%
DC50: < 5.1 µM

Structure (SMILES): C#Cc1c(F)ccc2cc(O)cc(-c3ncc4c(N5CC6CCC(C5)N6)nc(N(C)CCN5CCC(CC6CCN(CC7CCN(c8ccc9c(c8F)CN(C8CCC(=O)NC8=O)C9=O)CC7)CC6)CC5)nc4c3F)c12 (stereo not drawn) [Compound 105]
Dmax: ≤ 25%
DC50: < 5.1 µM
